Source: patent US8785488B2 (Exelixis Patent Company LLC, priority 2009, dated 2014)

Columns and labels:
human TGR5 (h-TGR5) = molecular target: T1, human TGR5 (h-TGR5) (Homo sapiens, UniProt Q8TDU6); test: TGR5/CRE-Luciferiase Assay (HEK 293 hTGR5/CRE-Luc cells); format: cell-based; details: h-TGR5 CRE-Luc EC50, Table 1; read-out: CRE-Luc (EC50)
T1 construct: expressed in transfected cells
T1 sequence (Q8TDU6 1-330): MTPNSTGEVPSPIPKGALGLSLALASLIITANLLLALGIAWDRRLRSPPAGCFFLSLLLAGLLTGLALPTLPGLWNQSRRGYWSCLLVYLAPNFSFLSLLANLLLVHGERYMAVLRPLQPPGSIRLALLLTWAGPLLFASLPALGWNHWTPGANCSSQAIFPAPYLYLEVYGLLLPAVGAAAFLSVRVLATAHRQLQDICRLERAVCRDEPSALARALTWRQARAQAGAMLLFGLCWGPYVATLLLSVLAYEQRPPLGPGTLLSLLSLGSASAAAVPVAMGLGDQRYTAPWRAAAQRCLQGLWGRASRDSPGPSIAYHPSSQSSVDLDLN
How it was run: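 HEK293 cells stably carrying hTGR5 and a CRE-luciferase reporter were exposed to serially diluted compounds (diluted in DMEM with 5% DMSO) for 6 h. Cells were then lysed in luciferase buffer, luminescence was read, and EC50 values were derived from dose-response curves.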

h-TGR5 = molecular target: T2, h-TGR5 (Homo sapiens, UniProt Q8TDU6); test: TGR5 cAMP Assay using Cisbio cAMP Dynamic2 htrf kit (hTGR5CRE-luc HEK 293 cells); format: cell-based; details: h-TGR5 cAMP EC50, Table 1; read-out: cAMP (EC50)
T2 construct: expressed in transfected cells
T2 sequence (Q8TDU6 1-330): T1 sequence (Q8TDU6 1-330)
How it was run: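 […], 4000 hTGR5CRE-luc HEK 293 cells per well, with 0.5 mM IBMX and d2-cAMP, were incubated 30 min at room temperature with compounds in 8-point half-log series, in quadruplicate.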

Compound	EC50 (human TGR5 (h-TGR5))	EC50 (h-TGR5)
CC(C)(c1ccc(Cl)c(Cl)c1)c1cnc(SCc2ccc(F)c(OCC(=O)O)c2)n1-c1ccc(F)cc1 [({5-[({5-[1-(3,4-dichlorophenyl)-1-methylethyl]-1-(4-fluorophenyl)-1H-imidazol-2-yl}thio)methyl]-2-fluorophenyl}oxy)acetic acid]	100 to 1000 nM	100 to 1000 nM
COc1cc(-n2c(C(C)(C)c3ccc(Cl)c(Cl)c3)cnc2SCC2CCN(c3nnn[nH]3)CC2)ccc1F [4-[({5-[1-(3,4-dichlorophenyl)-1-methylethyl]-1-[4-fluoro-3-(methyloxy)phenyl]-1H-imidazol-2-yl}thio)methyl]-1-(1H-tetrazol-5-yl)piperidine]	< 100 nM	< 100 nM
CC(C)(c1ccc(Cl)c(Cl)c1)c1cnc(SCc2cc(C(=O)O)ccc2Cl)n1-c1ccc(F)cc1 [4-chloro-3-[({5-[1-(3,4-dichlorophenyl)-1-methylethyl]-1-(4-fluorophenyl)-1H-imidazol-2-yl}thio)methyl]benzoic acid]	100 to 1000 nM	100 to 1000 nM
COc1cc(-n2c(C(C)(C)c3ccc(S(C)(=O)=O)cc3)cnc2SCc2ccc(S(=O)(=O)NC(=O)NN3CCCC3)cc2Cl)ccc1F [3-chloro-4-{[(1-[4-fluoro-3-(methyloxy)phenyl]-5-{1-methyl-1-[4-(methylsulfonyl)phenyl]ethyl}-1H-imidazol-2-yl)thio]methyl}-N-[(pyrrolidin-1-ylamino)carbonyl]benzenesulfonamide]	100 to 1000 nM	1000 to 10000 nM
COc1cc(C(C)(C)c2cnc(SCc3c(F)cc(S(=O)(=O)NC(=O)NN4CCOCC4)cc3F)n2-c2ccc(F)cc2)ccc1Cl [4-({[5-{1-[4-chloro-3-(methyloxy)phenyl]-1-methylethyl}-1-(4-fluorophenyl)-1H-imidazol-2-yl]thio}methyl)-3,5-difluoro-N-[(morpholin-4-ylamino)carbonyl]benzenesulfonamide]	< 100 nM	< 100 nM
COc1cc(C(C)(C)c2cnc(SCc3c(F)cc(C(=O)NCCS(=O)(=O)O)cc3Cl)n2-c2ccc(F)cc2)ccc1Cl [2-({[3-chloro-4-({[5-{1-[4-chloro-3-(methyloxy)phenyl]-1-methylethyl}-1-(4-fluorophenyl)-1H-imidazol-2-yl]thio}methyl)-5-fluorophenyl]carbonyl}amino)ethanesulfonic acid]	< 100 nM	< 100 nM
Cc1cc(-n2c(C(C)(C)c3ccc(Cl)c(Cl)c3)cnc2SCc2ccc(S(=O)(=O)NC(=O)NN3CCCC3)cc2Cl)ccc1F [3-chloro-4-[({5-[l-(3,4-dichlorophenyl)-1-methylethyl]-1-(4-fluoro-3-methylphenyl)-1H-imidazol-2-yl}thio)methyl]-N-[(pyrrolidin-1-ylamino)carbonyl]benzenesulfonamide]	100 to 1000 nM	100 to 1000 nM
CC(C)(c1ccc(Cl)c(S(N)(=O)=O)c1)c1cnc(SCc2c(F)cc(C(=O)O)cc2Cl)n1-c1ccc(F)cc1 [4-({[5-{1-[3-(aminosulfonyl)-4-chlorophenyl]-1-methylethyl}-1-(4-fluorophenyl)-1H-imidazol-2-yl]thio}methyl)-3-chloro-5-fluorobenzoic acid]	100 to 1000 nM	100 to 1000 nM
CC(C)(c1ccc(Cl)c(Cl)c1)c1cnc(SCc2ccc(F)c(C(=O)NCC(=O)O)c2)n1-c1ccc(F)cc1 [N-({5-[({5-[1-(3,4-dichlorophenyl)-1-methylethyl]-1-(4-fluorophenyl)-1H-imidazol-2-yl}thio)methyl]-2-fluorophenyl}carbonyl)glycine]	100 to 1000 nM	100 to 1000 nM
COc1cc(C(C)(C)c2cnc(SCc3c(F)cc(OCCCNC(=N)N)cc3Cl)n2-c2ccc(F)cc2)ccc1Cl [1-(3-{[3-chloro-4-({[5-{1-[4-chloro-3-(methyloxy)phenyl]-1-methylethyl}-1-(4-fluorophenyl)-1H-imidazol-2-yl]thio}methyl)-5-fluorophenyl]oxy}propyl)guanidine]	< 100 nM	< 100 nM
COc1cc(-n2c(C(C)(C)c3ccc(Cl)c(Cl)c3)cnc2SCc2ccc(F)cc2Cl)ccc1F [2-{[(2-chloro-4-fluorophenyl)methyl]thio}-5-[1-(3,4-dichlorophenyl)-1-methylethyl]-1-[4-fluoro-3-(methyloxy)phenyl]-1H-imidazole]	100 to 1000 nM	100 to 1000 nM
COc1cc(C(C)(C)c2c(Cl)nc(SCC3CCN(S(C)(=O)=O)CC3)n2-c2ccc(F)cc2)ccc1Cl [4-({[4-chloro-5-{1-[4-chloro-3-(methyloxy)phenyl]-1-methylethyl}-1-(4-fluorophenyl)-1H-imidazol-2-yl]thio}methyl)-1-(methylsulfonyl)piperidine]	100 to 1000 nM	100 to 1000 nM
COc1cc(C(C)(C)c2cnc(SCc3c(F)cc(OCC/C=N/NC(=N)N)cc3Cl)n2-c2ccc(F)cc2)ccc1Cl [(2E)-2-(3-{[3-chloro-4-({[5-{1-[4-chloro-3-(methyloxy)phenyl]-1-methylethyl}-1-(4-fluorophenyl)-1H-imidazol-2-yl]thio}methyl)-5-fluorophenyl]oxy}propylidene) hydrazinecarboximidamide]	< 100 nM	< 100 nM
CCOC(=O)NS(=O)(=O)c1ccc(CSc2ncc(C(C)(C)c3ccc(Cl)c(OC)c3)n2-c2ccc(F)cc2)c(F)c1 [ethyl {[4-({[5-{1-[4-chloro-3-(methyloxy)phenyl]-1-methylethyl}-1-(4-fluorophenyl)-1H-imidazol-2-yl]thio}methyl)-3-fluorophenyl]sulfonyl}carbamate]	< 100 nM	< 100 nM
CC(C)(c1ccc(Cl)c(Cl)c1)c1cnc(SCc2ccc(OCC(=O)O)c(S(N)(=O)=O)c2)n1-c1ccc(F)cc1 [({2-(aminosulfonyl)-4-[({5-[1-(3,4-dichlorophenyl)-1-methylethyl]-1-(4-fluorophenyl)-1H-imidazol-2-yl}thio)methyl]phenyl}oxy)acetic acid]	100 to 1000 nM	100 to 1000 nM
COc1ccc(C(C)(C)c2cnc(SCc3cc(F)ccc3Cl)n2-c2ccc(F)cc2)cc1OC [5-{1-[3,4-bis(methyloxy)phenyl]-1-methylethyl}-2-{[(2-chloro-5-fluorophenyl)methyl]thio}-1-(4-fluorophenyl)-1H-imidazole]	< 100 nM	< 100 nM
COc1cc(-n2c(C(C)(C)c3ccc4onc(N)c4c3)cnc2SCc2c(F)cc(C(=O)O)cc2F)ccc1F [4-[({5-[1-(3-amino-1,2-benzisoxazol-5-yl)-1-methylethyl]-1-[4-fluoro-3-(methyloxy)phenyl]-1H-imidazol-2-yl}thio)methyl]-3,5-difluorobenzoic acid]	< 100 nM	< 100 nM
COc1cc(C(C)(C)c2cnc(SCc3cc(S(N)(=O)=O)c(Cl)cc3F)n2-c2ccc(F)cc2)ccc1Cl [2-chloro-5-({[5-{1-[4-chloro-3-(methyloxy)phenyl]-1-methylethyl}-1-(4-fluorophenyl)-1H-imidazol-2-yl]thio}methyl)-4-fluorobenzenesulfonamide]	< 100 nM	< 100 nM
CC(C)(c1ccc(Cl)c(OCCCN2CCOCC2)c1)c1cnc(SCc2c(F)cc(C(=O)O)cc2Cl)n1-c1ccc(F)cc1 [3-chloro-4-({[5-(1-{4-chloro-3-[(3-morpholin-4-ylpropyl)oxy]phenyl}-1-methylethyl)-1-(4-fluorophenyl)-1H-imidazol-2-yl]thio}methyl)-5-fluorobenzoic acid]	100 to 1000 nM	100 to 1000 nM
COc1ccc(C(C)(C)c2c(Cl)nc(SCc3c(F)cccc3Cl)n2-c2ccc(F)cc2)cc1OC [5-{1-[3,4-bis(methyloxy)phenyl]-1-methylethyl}-4-chloro-2-{[(2-chloro-6-fluorophenyl)methyl]thio}-1-(4-fluorophenyl)-1H-imidazole]	< 100 nM	< 100 nM
CC(C)(c1ccc(Cl)c(Cl)c1)c1cnc(SCc2ccc(C(=O)NCCS(=O)(=O)O)cc2F)n1-c1ccc(F)cc1 [2-[({4-[({5-[1-(3,4-dichlorophenyl)-1-methylethyl]-1-(4-fluorophenyl)-1H-imidazol-2-yl}thio)methyl]-3-fluorophenyl}carbonyl)amino]ethanesulfonic acid-sodium (1:1)]	100 to 1000 nM	< 100 nM
CC(C)(c1ccc(Cl)c(Cl)c1)c1cnc(SCc2ccc(S(N)(=O)=O)cc2Cl)n1-c1ccc(F)cc1 [3-chloro-4-[({5-[1-(3,4-dichlorophenyl)-1-methylethyl]-1-(4-fluorophenyl)-1H-imidazol-2-yl}thio)methyl]benzenesulfonamide]	100 to 1000 nM	100 to 1000 nM
CC(C)(c1ccc(O)c(O)c1)c1cnc(SCc2c(F)cccc2Cl)n1-c1ccc(F)cc1 [4-{1-[2-{[(2-chloro-6-fluorophenyl)methyl]thio}-1-(4-fluorophenyl)-1H-imidazol-5-yl]-1-methylethyl}benzene-1,2-diol]	< 100 nM	100 to 1000 nM
COc1cc(C(C)(C)c2cnc(SCc3c(F)cc(C(=O)NC(CCCCNC(=N)N)C(=O)O)cc3Cl)n2-c2ccc(F)cc2)ccc1Cl [N-6-[amino(imino)methyl]-N-2-{[3-chloro-4-({[5-{1-[4-chloro-3-(methyloxy)phenyl]-1-methylethyl}-1-(4-fluorophenyl)-1H-imidazol-2-yl]thio}methyl)-5-fluorophenyl]carbonyl}-L-lysine]	< 100 nM	< 100 nM
